We go through two compounds from patent US20130172407A1, “Inhibition of Cancer Cell Proliferation Using Oleoylethanolamide” (China Medical University, priority 2011, published 2013).

Each structure is given as a SMILES string.

Holding throughout (assay type): cell-based, Human
Test [1] concerns HT-29 cells. Put plainly: Flow cytometry cell cycle analysis (PI staining, Sub-G1 phase). To be noted: 24 hours, OEA 50, 100, 200 μM, lycopene 2, 5 μM, synergy groups (200 μM OEA + 2 or 5 μM lycopene) compared to OEA groups 1-3 and lycopene groups 1 and 2, FIG. 9. The protocol:
In order to understand the effect of OEA and its combination with lycopene on the cell cycle and proliferation of human colorectal cancer cell line HT-29, HT-29 cell culture treated with different solutions obtained from Item B of Example 2 was used for the following experiments.
Each group of the HT-29 cell culture obtained from Item B of Example 2 was washed with PBS twice followed by fixing the cells with 70% (w/v) cold ethanol for 1 hour. Then, the obtained fixed cells were washed with cold PBS followed by centrifugation at 300 g for 5 minutes. […]
Subsequently, the obtained dyed cells were subjected to cell cycle analysis using BD FACSCanto™ flow cytometer (BD Biosciences, Cat. No. 338960), and the DNA content of 1×10^4 cells was analyzed in each analysis. The cells would emit fluorescence when excited by laser beam of argon ion at 488 nm. Cell cycle profile was analyzed from DNA content histograms using BD FACSDiVa™ software (Becton Dickinson, Cat. No. 643629). […] The percentage of the cells in Sub-G1 phase was analyzed using ModFit LT software.
The obtained experimental data was analyzed according to the method described in “Statistical Analysis” in the section of “General experimental procedure”.

The next test has as its system SW-480 cells. Put plainly: MTT cell viability analysis, SW-480 cells. To be noted: 24 hours, OEA 50, 100, 200 μM and lycopene 2, 5 μM compared to control group, synergy groups (200 μM OEA + 2 or 5 μM lycopene) compared to OEA group 3 and lycopene groups 1 and 2, FIG. 3. The protocol: (§1) HT-29 cells were cultured in a 75-cm^2 flask containing McCoy's medium (Invitrogen Inc., Carlsbad, Calif., USA) supplemented with 10% Fetal Bovine Serum (FBS), 2 mM glutamine and 1.5 g/L sodium bicarbonate. The remaining cells were cultured in a 75-cm^2 flask containing RPMI 1640 medium (Hyclone, Grand Island, N.Y., USA) supplemented with 10% Fetal Bovine Serum (FBS), 2 mM glutamine and 1.5 g/L sodium bicarbonate. These cells were cultured in an incubator with culture conditions set at 37° C. and 5% CO2. […]
(§2) • {3-[4,5-Dimethylthiazol-2-yl]-2,5-diphenyltetrazolium bromide} (MTT, 0.5 mg/mL, 200 μL) was added to the cell culture of each group, followed by incubation in an incubator (37° C., 5% CO2) for 2 hours. […] The absorbance at 570 nm (OD570) for each well was detected using a microplate reader (Tecan Inc., Mannedorf, Switzerland).
(§3) Cell viability percentage (%) was calculated by substituting the detected absorbance (OD570) to the following formula (1):
(§4) A=(B/C)×100 Formula (1): • wherein: • A=cell viability percentage (%) • B=the detected OD570 absorbance of each group • C=the detected OD570 absorbance of control group

Another test relates to cyclin D1. Put plainly: Western Blotting analysis of nuclear protein, cyclin D1 expression in HT-29 cells. To be noted: HT-29 nuclear protein; OEA 200 μM, lycopene 2 and 5 μM compared to control group; synergy groups compared to OEA group 3 and lycopene groups 1 and 2; FIG. 10. As to the method: (§5) In order to detect the protein expression of HT-29 cells, the HT-29 cell culture treated with different solutions for use in the instant experiment was obtained substantially according to “B. Treatment of various cancer cell lines with OEA solutions, lycopene solutions and combined solutions” in the above Example 2. The difference was that the cells of each group were cultured in a culture dish having a diameter of 10 cm. Experimental groups were added with different solutions according to those shown in Table 3 and the amount added was 10 mL.
(§6) Then, the HT-29 cell cultures of the control group, OEA group 3, lycopene groups 1 and 2 and synergy groups 1 and 2 were washed with PBS twice followed by adding 75 μL lysis buffer (containing PBS, 1% Ipegal CA-630 (Sigma, St. Louis, Mo.), 0.5% sodium deoxycholate, 0.1% SDS, 100 μM phenylmethylsulfonyl fluoride, 20 μg/mL aprotinin, 1 mM PMSF and 3 μM sodium orthovanadate) and uniformly mixing. The resultant cell mixtures were subjected to nuclear protein extraction using NE-PER® Nuclear and Cytoplasmic Extraction Reagents (Thermo Scientific, Cat. No. 78833) according to the manufacturer's operation guide, thereby obtaining nuclear protein samples. […]

In test [2] the test system is HT-29 cells. Put plainly: MTT cell viability analysis, HT-29 cells. To be noted: 24 hours, OEA 50, 100, 200 μM and lycopene 2, 5 μM compared to control group, synergy groups (200 μM OEA + 2 or 5 μM lycopene) compared to OEA group 3 and lycopene groups 1 and 2, FIG. 1. As to the method: as §1, §2, §3, §4
In another test the test system is CAL 27 cells. Put plainly: MTT cell viability analysis, CAL 27 cells. To be noted: 24 hours, OEA 50, 100, 200 μM and lycopene 2, 5 μM compared to control group, synergy groups (200 μM OEA + 2 or 5 μM lycopene) compared to OEA group 3 and lycopene groups 1 and 2, FIG. 7. As to the method:
as §1, §2, §3, §4

In the next test the test system is Huh-7 cells. Put plainly: MTT cell viability analysis, Huh-7 cells. To be noted: 24 hours, OEA 50, 100, 200 μM and lycopene 2, 5 μM compared to control group, synergy groups (200 μM OEA + 2 or 5 μM lycopene) compared to OEA group 3 and lycopene groups 1 and 2, FIG. 6. The protocol:
as §1, §2, §3, §4

A further test relates to p-NF-κB p65. Put plainly: Western Blotting analysis of nuclear protein, p-NF-κB p65 expression in HT-29 cells. To be noted: HT-29 nuclear protein; OEA 200 μM, lycopene 2 and 5 μM compared to control group; synergy groups compared to OEA group 3 and lycopene groups 1 and 2; FIG. 10. The protocol:
as §5, §6

Another test relates to HCT 116 cells. Put plainly: MTT cell viability analysis, HCT 116 cells. To be noted: 24 hours, OEA 50, 100, 200 μM and lycopene 2, 5 μM compared to control group, synergy groups (200 μM OEA + 2 or 5 μM lycopene) compared to OEA group 3 and lycopene groups 1 and 2, FIG. 2. The protocol: as §1, §2, §3, §4
The subject of test [3] is HT-29 cells. Put plainly: FITC Annexin V / PI flow cytometry, cell death (apoptosis). To be noted: FITC Annexin V and PI positive, OEA 200 μM and lycopene 5 μM compared to control group, synergy groups compared to OEA group 3 and lycopene group 2, FIG. 11. As to the method: In order to further investigate the usefulness of OEA and its combination with lycopene in inducing cell apoptosis of human colorectal cancer cell line HT-29, HT-29 cell cultures of control group, OEA group 3, lycopene groups 1 and 2 and synergy groups 1 and 2 obtained according to the above Item B in Example 2 were used for subsequent experiments.
First, the cell culture of each group was collected and washed with cold PBS twice followed by centrifugation at 300 g for 5 minutes. The supernatant was removed and 1× Annexin V Binding Buffer (BD Pharmingen™) was added to sufficiently re-suspend the cell pellet thereby obtaining a cell suspension having a cell concentration of 1×10^5 cells/mL. […]
Then, the stained cells were analyzed using BD FACSAria™ flow cytometry, wherein cells stained with FITC Annexin V and PI, i.e., FITC Annexin V positive and PI positive, represent cells that were induced with apoptosis and died, while cells that could not be stained with FITC Annexin V and PI, i.e., FITC Annexin V negative and PI negative, represent viable cells. The number of cells stained with FITC Annexin V and PI was calculated using BD FACSDiVa™ software.
The cell death percentage (%) of each group was calculated by substituting the detected cell number to the following formula (2): […]

The test system of a further test is MDA-MB-231 cells. Put plainly: MTT cell viability analysis, MDA-MB-231 cells. Particulars: 24 hours, OEA 50, 100, 200 μM and lycopene 2, 5 μM compared to control group, synergy groups (200 μM OEA + 2 or 5 μM lycopene) compared to OEA group 3 and lycopene groups 1 and 2, FIG. 5. As to the method:
as §1, §2, §3, §4

The subject of another test is AGS cells. Put plainly: MTT cell viability analysis, AGS cells. To be noted: 24 hours, OEA 50, 100, 200 μM and lycopene 2, 5 μM compared to control group, synergy groups (200 μM OEA + 2 or 5 μM lycopene) compared to OEA group 3 and lycopene groups 1 and 2, FIG. 8. As to the method: as §1, §2, §3, §4
A further test concerns A549 cells. Put plainly: MTT cell viability analysis, A549 cells. To be noted: 24 hours, OEA 50, 100, 200 μM and lycopene 2, 5 μM compared to control group, synergy groups (200 μM OEA + 2 or 5 μM lycopene) compared to OEA group 3 and lycopene groups 1 and 2, FIG. 4. The protocol:
as §1, §2, §3, §4

Turning to `CC(C)=CCC/C(C)=C/C=C/C(C)=C/C=C/C(C)=C/C=C/C=C(C)/C=C/C=C(C)/C=C/C=C(\C)CCC=C(C)C` [lycopene], in the test with HT-29 cells [1], the “percentage of HT-29 cells in Sub-G1 phase” value is on record as “promote HT-29 cells to be in Sub-G1 phase”. For the same compound, the cell viability percentage result in the test with SW-480 cells, in the test on HT-29 cells [2], with CAL 27 cells, in the test on Huh-7 cells, with HCT 116 cells and in the test on MDA-MB-231 cells was “reduced” each time. In addition, the cell viability percentage result with AGS cells and in the test with A549 cells was “reduced” throughout. In addition, the “amount of cyclin D1 expression” value in the test on cyclin D1 was “reduced”. For the same compound, the “amount of p-NF-κB p65 expression” value in the test on p-NF-κB p65 is given as “reduced”. Also, in the test with HT-29 cells [3], the cell death percentage result is recorded as “elevated”.

With `CCCCCCCC/C=C\CCCCCCCC(=O)NCCO` [OEA, oleoylethanolamide], in the test with HT-29 cells [1], the “percentage of HT-29 cells in Sub-G1 phase” value is listed as “promote HT-29 cells to be in Sub-G1 phase”. Further, the cell viability percentage entry with SW-480 cells, in the test with HT-29 cells [2], in the test with CAL 27 cells, in the test with Huh-7 cells, in the test with HCT 116 cells and with MDA-MB-231 cells was “reduced” in each case. Also, the cell viability percentage result in the test with AGS cells and in the test with A549 cells was “reduced” throughout. Moreover, the “amount of cyclin D1 expression” value with cyclin D1 is “reduced”. For the same compound, in the test with p-NF-κB p65, the “amount of p-NF-κB p65 expression” value was “reduced”. Also, the cell death percentage entry in the test with HT-29 cells [3] is “elevated”.
